Measured values taken from patent publication US20230227466A1, “SUBSTITUTED THIENOPYRIMIDINES THAT INTERACT WITH THE RAS SUPERFAMILY FOR THE TREATMENT OF CANCERS, INFLAMMATORY DISEASES, RASOPATHIES, AND FIBROTIC DISEASE” (SHY Therapeutics, LLC, priority 2020, published 2023).

Experiments:
[1] = test system: Akt phosphorylation in Panc-1 cells; experiment: Western AKT cell-based phosphorylation assay; set-up: species or system human; conditions: at 10 μM, values in brackets < > are activation %, not inhibition
Outline: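 Phospho-Akt (Ser473) western blot of Panc-1 lysates, with Ponceau S to confirm uniform loading. Before lysis, cells were serum-starved overnight (0.5% FBS), incubated 6 h at 37° C with 10 μM compound in 0.3% DMSO and stimulated 15 min with 1.5 ng/ml EGF.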

[2] = test system: MIA-PaCa-2 pancreatic cancer cell line (KRAS G12C); experiment: Cell proliferation assay (CellTiter 96 Aqueous One); assay type: cell-based; conditions: Homo sapiens; for inhibition at 10 µM: MIA PaCa-2, read-out: % inh cell proliferation (10 μM) in MIA PaCa-2
Outline: (§1)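 Percent inhibition of proliferation is derived from MTS absorbance data. Cells seeded at 2000–5000 per well were grown overnight before treatment. Compounds, at 10 μM final or in dilution series, stayed on cells for 2–4 days in medium containing 10% FBS and 0.3% DMSO.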

[3] = test system: PANC-1 pancreatic cancer cell line (KRAS G12D); experiment: as above; assay type: cell-based; conditions: Homo sapiens; PANC-1, 2-4 days, 10% FBS
Outline: as §1

[4] = test system: SW-620 colorectal cancer cell line (KRAS G12V); experiment: as above; assay type: cell-based; conditions: Homo sapiens; SW-620, 2-4 days, 10% FBS
Outline: as §1

| Compound | % inh of AKT phosphorylation in PANC-1 [1] | IC50 ([2]; MIA PaCa-2, MIA PaCa-2) | inhibition at 10 µM [2] | IC50 [3] | IC50 ([2]; MIA PaCa-2, MIA-PaCa-2, 2-4 days, 10% FBS) | IC50 [4] |
| --- | --- | --- | --- | --- | --- | --- |
| CO[C@H]1CC[C@@H](Nc2nc(-c3nccn3C)nc3sc(-c4cn(C)cn4)c(-c4ccccc4)c23)C1 (racemic) [Example 3, Rac-N-((1R,3S)-3-methoxycyclopentyl)-2-(1-methyl-1H-imidazol-2-yl)-6-(1-methyl-1H-imidazol-4-yl)-5-phenylthieno[2,3-d]pyrimidin-4-amine] | 0 (0% inhibition) | 1 to 4.99 µM | 76 to 100% | – | – | – |
| COc1ccn2c(-c3nc(O)c4scc(-c5ccccn5)c4n3)ncc2c1 [Compound 85, 2-(7-Methoxyimidazo[1,5-a]pyridin-3-yl)-7-(pyridin-2-yl)thieno[3,2-d]pyrimidin-4-ol] | 0 (0% inhibition) | 5 to 10 µM | 51 to 75% | – | – | – |
| COc1ccc2cnc(-c3nc(O)c4scc(-c5ccccn5)c4n3)n2c1 [Compound 86, 2-(6-Methoxyimidazo[1,5-a]pyridin-3-yl)-7-(pyridin-2-yl)thieno[3,2-d]pyrimidin-4-ol] | B (26-50% inhibition) | 5 to 10 µM | 51 to 75% | – | – | – |
| COCCn1c(-c2nc(O)c3scc(-c4ccccn4)c3n2)nc2ccccc21 [Compound 87, 2-(1-(2-Methoxyethyl)-1H-benzo[d]imidazol-2-yl)-7-(pyridin-2-yl)thieno[3,2-d]pyrimidin-4-ol] | <A> | 5 to 10 µM | 76 to 100% | < 0.4 µM | > 3 µM | < 0.4 µM |
| Oc1nc(-c2ccncn2)nc2c(-c3ccccn3)csc12 [Compound 88, 7-(Pyridin-2-yl)-2-(pyrimidin-4-yl)thieno[3,2-d]pyrimidin-4-ol] | <B> | > 10 µM | 26 to 50% | – | – | – |
| Oc1nc(-c2cccnc2)nc2c(-c3ccccn3)csc12 [Compound 89, 7-(Pyridin-2-yl)-2-(pyridin-3-yl)thieno[3,2-d]pyrimidin-4-ol] | 0 (0% inhibition) | > 10 µM | 26 to 50% | – | – | – |
| Cn1ccc(-c2nc(O)c3scc(-c4ccccn4)c3n2)n1 [Compound 90, 2-(1-Methyl-1H-pyrazol-3-yl)-7-(pyridin-2-yl)thieno[3,2-d]pyrimidin-4-ol] | 0 (0% inhibition) | > 10 µM | 1 to 25% | – | – | – |
| Cn1nccc1-c1nc(O)c2scc(-c3ccccn3)c2n1 [Compound 91, 2-(1-Methyl-1H-pyrazol-5-yl)-7-(pyridin-2-yl)thieno[3,2-d]pyrimidin-4-ol] | 0 (0% inhibition) | > 10 µM | 0% | – | – | – |
| Cc1cnc(-c2nc(O)c3scc(-c4ccccn4)c3n2)s1 [Compound 92, 2-(5-Methylthiazol-2-yl)-7-(pyridin-2-yl)thieno[3,2-d]pyrimidin-4-ol] | 0 (0% inhibition) | > 10 µM | 0% | – | – | – |
| COCCn1ccnc1-c1nc(O)c2scc(-c3ccncc3)c2n1 [Compound 94, 2-(1-(2-Methoxyethyl)-1H-imidazol-2-yl)-7-(pyridin-4-yl)thieno[3,2-d]pyrimidin-4-ol] | 0 (0% inhibition) | 5 to 10 µM | 51 to 75% | – | – | – |
| COc1nc(-c2nccn2C)nc2c(-c3ncccc3F)csc12 [Compound 95, 7-(3-Fluoropyridin-2-yl)-4-methoxy-2-(1-methyl-1H-imidazol-2-yl)thieno[3,2-d]pyrimidine] | 0 (0% inhibition) | > 10 µM | 0% | – | – | – |
| CO[C@H]1C[C@@H](Nc2nc(-c3nccn3C)nc3sc(-c4cn(C)cn4)c(-c4ccccc4)c23)C1 [Example 2, N-((1s,3s)-3-methoxycyclobutyl)-2-(1-methyl-1H-imidazol-2-yl)-6-(1-methyl-1H-imidazol-4-yl)-5-phenylthieno[2,3-d]pyrimidin-4-amine] | 0 (0% inhibition) | 1 to 4.99 µM | 51 to 75% | – | – | – |
